For series [1], the system named is HIV-1 SG3.1. The settings on record: ref Bártolo et al., 2021; Alves et al., 2021c; cited from earlier work.
Series [2] concerns HIV-2 03PTHCC19. Also noted: method as in Bártolo et al., 2021. The following applies: ref Bártolo et al., 2021; cited from earlier work.
For series [3], the system named is P. berghei hepatic stage. Further details: method as in Bártolo et al., 2021; Alves et al., 2021c. The settings on record: hepatic infection; ref Bártolo et al., 2021; Alves et al., 2021c; cited from earlier work.
Series [4] has as its system P. falciparum strain NF54. Further details: method as in Bártolo et al., 2021; Alves et al., 2021c. The settings on record: erythrocytic infection; ref Bártolo et al., 2021; Alves et al., 2021c; cited from earlier work.
Series [5] in a line: Cellular viability assay (alamarBlue) in TZM-bl cells. The settings on record: human, 50% cytotoxic concentration. Type of series: cell-based. As for the experimental part:
Before the antiviral activity screening, all spirocyclopentene-β-lactams were assayed for their in vitro cytotoxic activity (CC50) in TZM-bl cells (Table 4).
TZM-bl cells (AIDS Research and Reference Reagent Program, National Institutes of Health, United States) were cultured in complete growth medium consisting of Dulbecco’s Minimal Essential Medium (DMEM) supplemented with 10% fetal bovine serum (FBS), 100 U/ml of penicillin–streptomycin (Gibco/Invitrogen, United States), 1 mM of sodium pyruvate (Gibco/Invitrogen, United States), 2 mM of L-glutamine (Gibco/Invitrogen, United States), and 1 mM of non-essential amino acids (Gibco/Invitrogen, United States). Cell cultures were maintained at 37°C in 5% CO2.
The in vitro cytotoxicity of test compounds was evaluated in TZM-bl cells using alamarBlue cell viability reagent (Life Technologies, United States), according to the instructions of the manufacturer. The cells were cultured in the presence and absence of serial-fold dilutions of the test compounds. Each dilution of each compound was performed in triplicate wells. Medium controls (only growth medium), cell controls (cells without test compound), and cytotoxicity controls (a compound that kills cells) were employed in each assay.
In general terms: Alamar Blue is a resazurin reagent that responds to reducing activity.

Series [6] relates to P. falciparum strain NF54. Put plainly: Blood stage antiplasmodial activity, SYBR green I flow cytometry. Type of series: cell-based. The settings on record: Plasmodium falciparum, NF54, 48 h. Here is the method: Ring-stage synchronized cultures of P. falciparum strain NF54 at 2.5% hematocrit and at approximately 1% parasitemia were incubated with test compounds or dimethyl sulfoxide (DMSO, vehicle control) in 96-well plates for 48 h at 37°C in a 5% CO2 and 5% O2 atmosphere. Stock solutions of chloroquine (positive control) and compounds 9i, 12a, and 14a were prepared in DMSO. Working solutions were prepared from the stock solutions in complete malaria culture medium (CMCM), which consists of RPMI 1640 supplemented with 25 mM HEPES, 2.4 mM L-glutamine, 50 μg/ml gentamicin, 0.5% w/v Albumax, 11 mM glucose, 1.47 mM hypoxanthine, and 37.3 mM NaHCO3. For each measurement, 5 μl of the culture (approximately 800,000 cells) were stained with the DNA-specific dye SYBR green I. After 20 min of incubation in the dark, the stained sample was analyzed by flow cytometry. Approximately 100,000 events were analyzed in each flow cytometry measurement. Two independent experiments were performed, and all samples were analyzed in triplicate.
(In general: A flow cytometer gives signals particle by particle.)

Series [7] relates to HIV-2 03PTHCC19. Put plainly: microbe, parasite or virus in culture. The settings on record: Human immunodeficiency virus 2, TZM-bl; for IC50 / IC90: 48 h; for IC50: read-out: IC50 HIV-2; for IC90: read-out: IC90 HIV-2; for inhibition at 25 µg/mL: read-out: MPI (%) 25 μg/mL. The text has this: (§1) The HIV-1 SG3.1 is a reference subtype B strain that uses the CXCR4 coreceptor. It was obtained by transfection of HEK293T cells with pSG3.1 plasmid using jetPRIME transfection reagent (Polyplus-transfection SA, Illkirch, France), according to the instructions of the manufacturer.
(§2) Briefly, TZM-bl cells were infected with 200 TCID50 of HIV-1 or HIV-2 in the presence of serial-fold dilutions of the compounds in the growth medium, supplemented with diethylaminoethyl-dextran (DEAE-dextran). After 48 h of infection, luciferase expression was quantified with Pierce Firefly Luc One-Step Glow Assay Kit (ThermoFisher Scientific, Rockford, United States), according to the instructions of the manufacturer. For each compound dilution, the assay was set up in triplicate wells. Virus controls, cell controls, and inhibitors controls (drugs with a known action against each virus) were employed.

Series [8] concerns HIV-1 SG3.1. Put plainly: microbe, parasite or virus in culture. The following applies: for IC50 / IC90: 48 h; for IC90: read-out: IC90 HIV-1; for inhibition at 25 µg/mL: read-out: MPI (%) 25 μg/mL.
Description: as §1, §2

Series [9] concerns P. berghei hepatic stage. Put plainly: In vitro hepatic infection of Huh7 cells by luciferase-expressing P. berghei. Type of series: cell-based. The following applies: Plasmodium berghei; for IC50: Huh-7, hepatic stage, Huh7 cells, 48 h after infection. Here is the method:
The inhibitory activity of test compounds on in vitro hepatic infection by P. berghei was determined by comparing the parasite load in compound- and solvent-treated P. berghei-infected Huh7 cells. Infection load was assessed by measurement of luminescence intensity in Huh7 cells infected, with a firefly luciferase-expressing P. berghei line, as previously described ([Ploemen et al., 2009]; [António et al., 2017]). Briefly, Huh7 cells were seeded in 96-well plates (1.0 × 10^4 cells per well) the day before drug treatment and infection. The medium was replaced by another medium containing the appropriate concentration of each compound approximately 1 h prior to infection with sporozoites freshly obtained through disruption of salivary glands of infected female Anopheles stephensi mosquitoes. Sporozoite addition was followed by centrifugation at 1,800 g for 5 min. Parasite infection load was measured 48 h after infection by a bioluminescence assay (Biotium). Cell confluence, a surrogate measure of compound toxicity to Huh7 cells, was assessed by fluorescence measurements using the alamarBlue assay, according to the manufacturer’s instructions. […] Specifically, non-linear regression analysis was employed to fit the normalized results of the dose-response curves, and IC50 values were determined using GraphPad Prism 8.0 (GraphPad Software, La Jolla, California, United States).

[10] abbreviates: Human immunodeficiency virus 1, TZM-bl, read-out: IC50 HIV-1, TZM-bl cells, 48 h.
Setting [11] is: Human immunodeficiency virus 1, TZM-bl.
[12] abbreviates: read-out: IC50 HIV-1, TZM-bl cells.

Values joined by “and” are separate entries in the source; they are usually repeats but may differ in a detail not shown here. Equal entries are not always repeated. Where two headings read alike, the source gives them in different places.

A word on the IC50: it is the concentration at which inhibition is half-maximal. As a reminder, the CC50 is the concentration giving 50% cytotoxicity. A low value points to greater toxicity to the cells. Broadly, the melting point is the temperature, or range, at which the solid turns liquid. A word on the IC90: it is the concentration at which the effect reaches the 90% level.

Turning to `COC(=O)C1C(C(=O)OCc2ccccc2)=CCC12C(=O)N1C(C(=O)OC(c3ccccc3)c3ccccc3)C(C)(C)SC12` (stereo not drawn) [BSS-722A], the IC50 in [1] was 650 nM; in series [2], 510 nM; in series [3], less than 5000 nM.

On to `COC(=O)C1=CCC2(C(=O)N3C(C(=O)OC(c4ccccc4)c4ccccc4)C(C)(C)SC32)C1C(=O)Oc1ccccc1` (stereo not drawn) [Compound 4], for which the IC50 was 1260 nM in series [4] and 2290 nM in series [3].

As for `CCOC(=O)C1=CCC2(C(=O)N3C(C(=O)OC(c4ccccc4)c4ccccc4)C(C)(C)SC32)C1C(=O)c1ccccc1` (stereo not drawn) [Compound 5], the IC50 in [4] is 844 nM; in [1], 305 nM and < 300 nM; in [3], 1920 nM.

In turn, `COc1ccc(COC(=O)C2=CCC3(C(=O)N4C(C(=O)OC(c5ccccc5)c5ccccc5)C(C)(C)SC43)C2C(=O)c2ccccc2)cc1` (stereo not drawn) [Compound 9i, (1’R,2’R)-Benzhydryl spiro[(2-benzoyl-3-(4-methoxybenzyloxycarbonyl)cyclopent-3-ene)-1’,6-penicillanate]] yielded a melting point of 65.3 to 67.4 °C. In series [5], the CC50 stood at 35800 nM. The molecule also displayed an IC50 in [6] of 336 ± 67 nM. Further, in series [7], the IC50 is 111 nM, the IC90 is 350 nM and the inhibition at 25 µg/mL worked out at 100%. Also, the IC50 in series [8] (setting [10]) worked out at 15 nM. Further, in [8] (setting [11]), the 90% effect concentration (IC90) came to 20 nM and the inhibition at 25 µg/mL was found to be 100%. Besides, in series [9] (Huh-7, read-out: percentage of inhibition of hepatic infection), the inhibition at 1 µM was less than 50%. In series [9], this molecule had an IC50 of 285 ± 44 nM.

`CC1(C)SC2N(C(=O)C23CC=C(C(=O)OCC=Cc2ccccc2)C3C(=O)c2ccccc2)C1C(=O)OC(c1ccccc1)c1ccccc1` (stereo not drawn) [Compound 9n, (1’R,2’R)-Benzhydryl spiro[(2-benzoyl-3-cinnamyloxycarbonylcyclopent-3-ene)-1’,6-penicillanate]] came in with a melting point of 67.8 to 69.4 °C. This molecule also displayed a CC50 in series [5] of 62300 nM. Moreover, in series [7], the concentration for half-maximal inhibition (IC50) was found to be 16 nM, the IC90 worked out at 64 nM and the inhibition at 25 µg/mL was found to be 100%. Moreover, the IC50 in [8] (setting [10]) came out at 17 nM. Further, in [8] (setting [11]), the IC90 came out at 46 nM and the inhibition at 25 µg/mL was 100%. The same molecule registered an IC50 in series [9] of 1580 ± 191 nM.

For the molecule `CC1(C)SC2N(C(=O)C23CC=C(C(=O)OCc2ccccc2)C3C(=O)c2ccc(Br)cc2)C1C(=O)OC(c1ccccc1)c1ccccc1` (stereo not drawn) [Compound 12c, (1’R,2’R)-Benzhydryl spiro[(2-(4-bromobenzoyl)-3-benzyloxycarbonylcyclopent-3-ene)-1’,6-penicillanate]], the melting point fell in the range of 156.5 to 158.5 °C. The molecule further yielded a CC50 in [5] of 55000 nM. For the same molecule, in series [7], the IC50 turned out to be 93 nM, the IC90 was 159 nM and the inhibition at 25 µg/mL came out at 100%. Further, the IC50 in [8] (setting [10]) stood at 50 nM. Further, in series [8] (setting [11]), the IC90 was determined as 116 nM and the inhibition at 25 µg/mL stood at 87%. In series [9], the IC50 lay in the range of 1000 to 10000 nM.

`CC1(C)SC2N(C(=O)C23CC=C(C(=O)OCC=Cc2ccccc2)C3C(=O)c2ccc(F)cc2)C1C(=O)OC(c1ccccc1)c1ccccc1` (stereo not drawn) [Compound 14c, (1’R,2’R)-Benzhydryl spiro[(2-(4-fluorobenzoyl)-3-cinnamyloxycarbonylcyclopent-3-ene)-1’,6-penicillanate]] returned a melting point of 76.5 to 78.5 °C. Moreover, the CC50 in series [5] came to 77600 nM. Also, in series [7], the IC50 came to 39 nM, the IC90 is 103 nM and the inhibition at 25 µg/mL came out at 100%. Besides, the IC50 in series [8] (setting [10]) was less than 20 nM. Besides, in series [8] (setting [11]), the IC90 was determined as 18 nM and the inhibition at 25 µg/mL worked out at 100%. The IC50 in series [8] (setting [12]) turned out to be 15 nM. Also, the IC50 in [9] lay in the range of 1000 to 10000 nM.

In turn, `COc1ccc(COC(=O)C2=CCC3(C(=O)N4C(C(=O)OC(c5ccccc5)c5ccccc5)C(C)(C)SC43)C2C(=O)c2ccc(Cl)cc2)cc1` (stereo not drawn) [Compound 14d, (1’R,2’R)-Benzhydryl spiro[(2-(4-chlorobenzoyl)-3-(4-methoxybenzyloxycarbonyl)cyclopent-3-ene)-1’,6-penicillanate]] came in with a melting point of 76.1 to 78.1 °C. The same molecule had a CC50 in series [5] of 134000 nM. For the same molecule, in [7], the IC50 came out at 65 nM, the IC90 was found to be 123 nM and the inhibition at 25 µg/mL amounted to 100%. Besides, the IC50 in series [8] (setting [10]) was less than 20 nM. For the same molecule, in [8] (setting [11]), the IC90 turned out to be 19 nM and the inhibition at 25 µg/mL was 100%. The IC50 in series [8] (setting [12]) was found to be 15 nM. In [9], this molecule came in with an IC50 of 2000 ± 458 nM.

`COc1ccc(COC(=O)C2=CCC3(C(=O)N4C(C(=O)OC(c5ccccc5)c5ccccc5)C(C)(C)SC43)C2C(=O)c2ccc(Br)cc2)cc1` (stereo not drawn) [Compound 14g, (1’R,2’R)-Benzhydryl spiro[(2-(4-bromobenzoyl)-3-(4-methoxybenzyloxycarbonyl)cyclopent-3-ene)-1’,6-penicillanate]] had a melting point of 82.6 to 84.6 °C. Moreover, in series [5], the CC50 came out at 101000 nM. In addition, in [7], the IC50 was determined as 87 nM, the IC90 was 137 nM and the inhibition at 25 µg/mL was found to be 100%. Besides, the IC50 in series [8] (setting [10]) was 30 nM. In series [8] (setting [11]), the IC90 stood at 99 nM and the inhibition at 25 µg/mL worked out at 100%. This molecule yielded an IC50 in series [9] of 2590 ± 219 nM.

`CC1(C)SC2N(C(=O)C23CC=C(C(=O)OCC=Cc2ccccc2)C3C(=O)c2ccc(Br)cc2)C1C(=O)OC(c1ccccc1)c1ccccc1` (stereo not drawn) [Compound 14i, (1’R,2’R)-Benzhydryl spiro[(2-(4-bromobenzoyl)-3-cinnamyloxycarbonylcyclopent-3-ene)-1’,6-penicillanate]] showed a melting point of 89.1 to 91.1 °C. This molecule also displayed a CC50 in series [5] of 66900 nM. Also, the “Therapeutic index (CC50/IC50)” value in series [8] (HIV-1, CC50 in TZM-bl cells) came to 467.62. Besides, the IC50 in [8] (setting [10]) was 143 nM. In series [8] (setting [11]), the IC90 was 305 nM and the inhibition at 25 µg/mL was 95%.

Source of the values: article PMC9585939, “Unveiling a family of spiro-β-lactams with anti-HIV and antiplasmodial activity via phosphine-catalyzed [3+2] annulation of 6-alkylidene-penicillanates and allenoates” (Frontiers in Chemistry, 2022).
